This note sets out measurements from paper PMC5943319, “Cloning and characterization of a pyrethroid pesticide decomposing esterase gene, Est3385, from Rhodopseudomonas palustris PSB-S” (Scientific Reports, 2018).

The test system of the test is Est3385. Briefly: GC quantification of residual substrate, Michaelis-Menten. The test is classed as biochemical, Rhodopseudomonas palustris. Particulars: GST fusion; substrate 10-50 µg/ml (below the Km); pH and temperature of kinetics not stated.

`CC1(C)C(C(=O)OC(C#N)c2cccc(Oc3ccccc3)c2)C1(C)C` (stereo not shown) [fenpropathrin]: the Km is 734 ± 13 µM.

As usually defined, the Km is the concentration of substrate that gives half-maximal velocity.
